In patent publication US20030166653A1, “Novel form of (r)-n-[5-methyl-8-(4-methylpiperazin-1-yl)-1,2,3,4-tetrahydro-2-naphthyl]-4-morpholinobenzamide” (priority 2003, published 2003):

Key:
Format in all cases: physicochemical
[1] = Stability of bulk drug substance (HPLC purity) in daylight and at 90° C.; details: for HPLC Purity (100% - related substances): bulk
Description: The stability of [5-Methyl-8-(4-methylpiperazin-1-yl)-1,2,3,4-tetrahydro-2-naphtyl]-4-morpholinobenzamide(=“Base” in tables below) and (R)-N-[5-methyl-8-(4-methylpiperazin-1-yl)-1,2,3,4-tetrahydro-2-naphtyl]-4-morpholinobenzamide monohydrobromide Form A (=“Form A” in tables below), as bulk drug substance and in solutions at different pH levels after exposure to daylight and at elevated temperatures, has been studied. The bulk substances are very stable, both in daylight and at 90° C. There are no significant differences between the HPLC purity of [5-Methyl-8-(4-methylpiperazin-1-yl)-1,2,3,4-tetrahydro-2-naphtyl]-4-morpholinobenzamide (=Base) and (R)-N-[5-methyl-8-(4-methylpiperazin-1-yl)-1,2,3,4-tetrahydro-2-naphtyl]-4-morpholinobenzamide monohydrobromide Form A (=Form A) at the tested conditions.

[2] = Stability in water solutions (pH not adjusted), HPLC assay
Excerpt: (§1) The stability of [5-Methyl-8-(4-methylpiperazin-1-yl)-1,2,3,4-tetrahydro-2-naphtyl]-4-morpholinobenzamide(=“Base” in tables below) and (R)-N-[5-methyl-8-(4-methylpiperazin-1-yl)-1,2,3,4-tetrahydro-2-naphtyl]-4-morpholinobenzamide monohydrobromide Form A (=“Form A” in tables below), as bulk drug substance and in solutions at different pH levels after exposure to daylight and at elevated temperatures, has been studied. Three solutions were made from each batch of drug substance. One solution in pure water, one in 0.1 mM HCl (pH 4.1) and one in 0.1 M HCl (pH 1.1). The content of [5-Methyl-8-(4-methylpiperazin-1-yl)-1,2,3,4-tetrahydro-2-naphtyl]-4-morpholinobenzamide (=Base) was determined by HPLC, all results are calculated as the base.

[3] = Stability of solution in 0.1 mM HCl, pH 4.1, HPLC assay
Excerpt: as §1

[4] = Stability of solution in 0.1 M HCl, pH 1.1, HPLC assay
Excerpt: as §1

[5] = Solubility in water by HPLC-analysis
[6] = Water sorption by dynamic vapour sorption (DVS)
[7] = daylight RT, 14 days, % of start
[8] = daylight RT, 23 days, % of start

## Br.Cc1ccc(N2CCN(C)CC2)c2c1CC[C@@H](NC(=O)c1ccc(N3CCOCC3)cc1)C2 [Form A, (R)-N-[5-methyl-8-(4-methylpiperazin-1-yl)-1,2,3,4-tetrahydro-2-naphtyl]-4-morpholinobenzamide monohydrobromide]
[1]; 90° C., 2 days
  HPLC Purity (100% - related substances): 99.6%
[1]; 90° C., 8 days
  HPLC Purity (100% - related substances): 99.6%
[1]; 90° C., 14 days
  HPLC Purity (100% - related substances): 99.5%
[1]; 90° C., 21 days
  HPLC Purity (100% - related substances): 99.6%
[1]; 90° C., 30 days
  HPLC Purity (100% - related substances): 99.4%
[1]; 90° C., Start
  HPLC Purity (100% - related substances): 99.7%
[1]; daylight, RT, 8 days
  HPLC Purity (100% - related substances): 99.6%
[1]; daylight, RT, 14 days
  HPLC Purity (100% - related substances): 99.5%
[1]; daylight, RT, 21 days
  HPLC Purity (100% - related substances): 99.5%
[1]; daylight, RT, 30 days
  HPLC Purity (100% - related substances): 99.5%
[1]; daylight, RT, Start
  HPLC Purity (100% - related substances): 99.7%
[1]; in daylight and at 90° C.
  stability of bulk substance in words: very stable
[2]; 5° C., 8 days, % of start
  Stability in water solutions, assay: 101%
[2]; 5° C., 14 days, % of start
  Stability in water solutions, assay: 100%
[2]; 5° C., 23 days, % of start
  Stability in water solutions, assay: 99%
[2]; 5° C., Start
  Stability in water solutions, assay: 0.0248 mg base/ml
[2]; 5° C., Start, % of start
  Stability in water solutions, assay: (100%)
[2]; 60° C., 2 days, % of start
  Stability in water solutions, assay: 84%
[2]; 60° C., 8 days, % of start
  Stability in water solutions, assay: 81%
[2]; 60° C., 14 days, % of start
  Stability in water solutions, assay: 76%
[2]; 60° C., 23 days, % of start
  Stability in water solutions, assay: 82%
[2]; 60° C., Start
  Stability in water solutions, assay: 0.0248 mg base/ml
[2]; 60° C., Start, % of start
  Stability in water solutions, assay: (100%)
[2]; 60° C., pH not adjusted
  stability in pure water solution, comparison in words: less stable than the Base
[2]; Dark RT, 8 days, % of start
  Stability in water solutions, assay: 99%
[2]; Dark RT, 14 days, % of start
  Stability in water solutions, assay: 99%
[2]; Dark RT, 23 days, % of start
  Stability in water solutions, assay: 97%
[2]; Dark RT, Start
  Stability in water solutions, assay: 0.0248 mg base/ml
[2]; Dark RT, Start, % of start
  Stability in water solutions, assay: (100%)
[2]; daylight RT, 8 days, % of start
  Stability in water solutions, assay: 100%
[2]; [7]
  Stability in water solutions, assay: 101%
[2]; [8]
  Stability in water solutions, assay: 100%
[2]; daylight RT, Start
  Stability in water solutions, assay: 0.0248 mg base/ml
[2]; daylight RT, Start, % of start
  Stability in water solutions, assay: (100%)
[3]; 5° C., 8 days, % of start
  Solution in 0.1 mM HCl, pH 4.1, assay: 100%
[3]; 5° C., 14 days, % of start
  Solution in 0.1 mM HCl, pH 4.1, assay: 100%
[3]; 5° C., 23 days, % of start
  Solution in 0.1 mM HCl, pH 4.1, assay: 100%
[3]; 5° C., Start
  Solution in 0.1 mM HCl, pH 4.1, assay: 0.0490 mg base/ml
[3]; 5° C., Start, % of start
  Solution in 0.1 mM HCl, pH 4.1, assay: (100%)
[3]; 60° C., 2 days, % of start
  Solution in 0.1 mM HCl, pH 4.1, assay: 97%
[3]; 60° C., 8 days, % of start
  Solution in 0.1 mM HCl, pH 4.1, assay: 93%
[3]; 60° C., 14 days, % of start
  Solution in 0.1 mM HCl, pH 4.1, assay: 90%
[3]; 60° C., 23 days, % of start
  Solution in 0.1 mM HCl, pH 4.1, assay: 81%
[3]; 60° C., Start
  Solution in 0.1 mM HCl, pH 4.1, assay: 0.0490 mg base/ml
[3]; 60° C., Start, % of start
  Solution in 0.1 mM HCl, pH 4.1, assay: (100%)
[3]; Dark RT, 8 days, % of start
  Solution in 0.1 mM HCl, pH 4.1, assay: 99%
[3]; Dark RT, 14 days, % of start
  Solution in 0.1 mM HCl, pH 4.1, assay: 99%
[3]; Dark RT, 23 days, % of start
  Solution in 0.1 mM HCl, pH 4.1, assay: 98%
[3]; Dark RT, Start
  Solution in 0.1 mM HCl, pH 4.1, assay: 0.0490 mg base/ml
[3]; Dark RT, Start, % of start
  Solution in 0.1 mM HCl, pH 4.1, assay: (100%)
[3]; [7]
  Solution in 0.1 mM HCl, pH 4.1, assay: 99%
[3]; [8]
  Solution in 0.1 mM HCl, pH 4.1, assay: 97%
[3]; daylight RT, Start
  Solution in 0.1 mM HCl, pH 4.1, assay: 0.0490 mg base/ml
[3]; daylight RT, Start, % of start
  Solution in 0.1 mM HCl, pH 4.1, assay: (100%)
[3]; pH 4.1, except at 60° C.
  stability in solution in words: good
[4]; 5° C., 8 days, % of start
  Solution in 0.1 M HCl, pH 1.1, assay: 100%
[4]; 5° C., 14 days, % of start
  Solution in 0.1 M HCl, pH 1.1, assay: 100%
[4]; 5° C., 23 days, % of start
  Solution in 0.1 M HCl, pH 1.1, assay: 98%
[4]; 5° C., Start
  Solution in 0.1 M HCl, pH 1.1, assay: 0.504 mg base/ml
[4]; 5° C., Start, % of start
  Solution in 0.1 M HCl, pH 1.1, assay: (100%)
[4]; 60° C., 2 days, % of start
  Solution in 0.1 M HCl, pH 1.1, assay: 100%
[4]; 60° C., 8 days, % of start
  Solution in 0.1 M HCl, pH 1.1, assay: 97%
[4]; 60° C., 14 days, % of start
  Solution in 0.1 M HCl, pH 1.1, assay: 95%
[4]; 60° C., 23 days, % of start
  Solution in 0.1 M HCl, pH 1.1, assay: 88%
[4]; 60° C., Start
  Solution in 0.1 M HCl, pH 1.1, assay: 0.504 mg base/ml
[4]; 60° C., Start, % of start
  Solution in 0.1 M HCl, pH 1.1, assay: (100%)
[4]; Dark RT, 8 days, % of start
  Solution in 0.1 M HCl, pH 1.1, assay: 101%
[4]; Dark RT, 14 days, % of start
  Solution in 0.1 M HCl, pH 1.1, assay: 99%
[4]; Dark RT, 23 days, % of start
  Solution in 0.1 M HCl, pH 1.1, assay: 98%
[4]; Dark RT, Start
  Solution in 0.1 M HCl, pH 1.1, assay: 0.504 mg base/ml
[4]; Dark RT, Start, % of start
  Solution in 0.1 M HCl, pH 1.1, assay: (100%)
[4]; [7]
  Solution in 0.1 M HCl, pH 1.1, assay: 100%
[4]; [8]
  Solution in 0.1 M HCl, pH 1.1, assay: 98%
[4]; daylight RT, Start
  Solution in 0.1 M HCl, pH 1.1, assay: 0.504 mg base/ml
[4]; daylight RT, Start, % of start
  Solution in 0.1 M HCl, pH 1.1, assay: (100%)
[4]; pH 1.1, except at 60° C.
  stability in solution in words: good
[5]
  solubility in water in words: satisfactory
[5]; as the free base by HPLC-analysis
  solubility in water: 6.4 mg/mL
[6]; 80% RH and 25° C.
  water sorbed as measured by dynamic vapour sorption (DVS): 0,8%
[6]; solid state characterization, monohydrobromide
  hygroscopicity / water uptake in words: non-hygroscopic
